38 compounds from US20070027150A1 (priority 2005, published 2007) can be followed below.

pIC50: −log10 of the molar value.

One test has as its target His-tagged N-terminal ATP binding domain (amino acid residues 9-236) of HSP90α (Homo sapiens, UniProt P07900). The experiment in a line: HSP90 inhibitor binding potency: TRF competition binding assay. The following applies: Table I; read-out: Hsp90 IC50 Range. The method in brief: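 His-tagged HSP90α N-domain (residues 9-236) incubated 2 h at room temperature with biotinylated radicicol and increasing compound in 50 mM HEPES, 6 mM MgCl2, 20 mM KCl, 0.1% BSA. Bound tracer captured on streptavidin plates, detected with europium anti-His antibody by time-resolved fluorescence; IC50 derived.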
Turning to `Cc1nc(N)nc2c1C(=O)CC(c1nn(C)cc1-c1cccnc1F)C2` (centres unmarked) [Compound 63, 2-amino-7-[4-(2-fluoro-pyridin-3-yl)-1-methyl-1H-pyrazol-3-yl]-4-methyl-7,8-dihydro-6H-quinazolin-5-one], the pIC50 is > 6.00.

For `Cc1nc(N)nc2c1C(=O)CC(c1ccccc1Cc1ccccc1)C2` (centres unmarked) [Compound 14, 2-amino-7-(2-benzyl-phenyl)-4-methyl-7,8-dihydro-6H-quinazolin-5-one], the pIC50 was > 6.00.

As to `Cc1nc(N)nc2c1C(=O)CC(c1cccnc1-c1nccs1)C2` (centres unmarked) [Compound 36, 2-amino-4-methyl-7-[2-(1,3-thiazol-2-yl)pyridin-3-yl]-7,8-dihydroquinazolin-5(6H)-one], the pIC50 was 5.00 to 6.00. As to `Cc1cccc(C2CC(=O)c3c(C)nc(N)nc3C2)c1-c1ccccc1` (centres unmarked) [Compound 15, 2-amino-4-methyl-7-(6-methyl-1,1′-biphenyl-2-yl)-7,8-dihydroquinazolin-5(6H)-one], the pIC50 was 5.00 to 6.00.

For the compound `Cc1nc(N)nc2c1C(=O)CC(c1cccc(-c3ccccc3F)c1)C2` (centres unmarked) [Compound 58], the pIC50 is < 5.00. As to `COc1ccc(C2CC(=O)c3c(C)nc(N)nc3C2)cc1` (centres unmarked) [Compound 2, 2-amino-7-(4-methoxyphenyl)-4-methyl-7,8-dihydroquinazolin-5(6H)-one], the pIC50 is 5.00 to 6.00. As for `Cc1cnc(Oc2ccccc2C2CC(=O)c3c(C)nc(N)nc3C2)s1` (centres unmarked) [Compound 21, 2-amino-4-methyl-7-[2-(5-methyl-thiazol-2-yloxy)-phenyl]-7,8-dihydro-6H-quinazolin-5-one], the negative-log IC50 (pIC50) is > 6.00.

Consider `Cc1ncccc1-c1ccccc1C1CC(=O)c2c(C)nc(N)nc2C1` (centres unmarked) [Compound 116, 2-amino-4-methyl-7-[2-(2-methylpyridin-3-yl)phenyl]-7,8-dihydroquinazolin-5(6H)-one], for which the pIC50 is > 6.00. For `Cc1nc(N)nc2c1C(=O)CC(c1ccccc1-c1ccccc1OC(F)(F)F)C2` (centres unmarked) [Compound 111, 2-amino-4-methyl-7-[2′-(trifluoromethoxy)-1,1′-biphenyl-2-yl]-7,8-dihydroquinazolin-5(6H)-one], the pIC50 is > 6.00. As for `COc1ccncc1-c1ccccc1C1CC(=O)c2c(C)nc(N)nc2C1` (centres unmarked) [Compound 72, 2-amino-7-[2-(4-methoxypyridin-3-yl)phenyl]-4-methyl-7,8-dihydroquinazolin-5(6H)-one], the pIC50 was 5.00 to 6.00.

Turning to `Cc1nc(N)nc2c1C(=O)CC(c1cccnc1C1=CCCCC1)C2` (centres unmarked) [Compound 45, 2-amino-7-(2-cyclohex-1-en-1-ylpyridin-3-yl)-4-methyl-7,8-dihydroquinazolin-5(6H)-one], the pIC50 was > 6.00. The same measure, in the same setting: then `Cc1nc(N)nc2c1C(=O)CC(c1ccccc1-c1ccc[nH]c1=O)C2` (centres unmarked) [Compound 169, 2-amino-4-methyl-7-[2-(2-oxo-1,2-dihydropyridin-3-yl)phenyl]-7,8-dihydroquinazolin-5(6H)-one], with > 6.00; and `COC(=O)c1cccc(-c2ccccc2C2CC(=O)c3c(C)nc(N)nc3C2)c1` (centres unmarked) [Compound 104, methyl 2′-(2-amino-4-methyl-5-oxo-5,6,7,8-tetrahydroquinazolin-7-yl)-1,1′-biphenyl-3-carboxylate], with < 5.00; and `Cc1nc(N)nc2c1C(=O)CC(c1cccc(C(N)=O)c1)C2` (centres unmarked) [Compound 166, 3-(2-amino-4-methyl-5-oxo-5,6,7,8-tetrahydroquinazolin-7-yl)benzamide], with < 5.00.

With `COc1ccc(-c2cccnc2Cl)c(C2CC(=O)c3c(C)nc(N)nc3C2)c1` (centres unmarked) [Compound 108, 2-amino-7-[2-(2-chloropyridin-3-yl)-5-methoxyphenyl]-4-methyl-7,8-dihydroquinazolin-5(6H)-one], the pIC50 was > 6.00. The same measure, in the same setting: then `Cc1nc(N)nc2c1C(=O)CC(c1ccccc1OC(C)C)C2` (centres unmarked) [Compound 149, 2-amino-7-(2-isopropoxy-phenyl)-4-methyl-7,8-dihydro-6H-quinazolin-5-one], with > 6.00; and `Cc1cccc(Oc2ccccc2C2CC(=O)c3c(C)nc(N)nc3C2)c1` (centres unmarked) [Compound 135, 2-amino-4-methyl-7-[2-(3-methylphenoxy)phenyl]-7,8-dihydroquinazolin-5(6H)-one], with > 6.00.

The same test, now with this note: Table II; read-out: Hsp90 IC50 Range.
Consider `CCc1nc(N)nc2c1C(=O)CC(c1ccc(F)cc1-c1cncc(OC)n1)C2` (centres unmarked) [Compound 325, 2-amino-4-ethyl-7-[4-fluoro-2-(6-methoxy-pyrazin-2-yl)-phenyl]-7,8-dihydro-6H-quinazolin-5-one], for which the pIC50 is > 6.00.

For the compound `COc1cccc(-c2ccccc2C2CC(=O)c3c(nc(N)nc3C(F)(F)F)C2)n1` (centres unmarked) [Compound 216, 2-amino-7-[2-(6-methoxy-pyridin-2-yl)-phenyl]-4-trifluoromethyl-7,8-dihydro-6H-quinazolin-5-one], the pIC50 was > 6.00.

With `Cc1nc(N)nc2c1C(=O)CC(c1ncsc1-c1cc(F)ccc1F)C2` (centres unmarked) [Compound 292, 2-amino-7-[5-(2,5-difluoro-phenyl)-thiazol-4-yl]-4-methyl-7,8-dihydro-6H-quinazolin-5-one], the pIC50 was > 6.00. On the same count and under the same terms, under `COc1cncc(-c2cccc(F)c2C2CC(=O)c3c(C)nc(N)nc3C2)n1` (centres unmarked) [Compound 240, 2-amino-7-[2-fluoro-6-(6-methoxy-pyrazin-2-yl)-phenyl]-4-methyl-7,8-dihydro-6H-quinazolin-5-one] stands 5.00 to 6.00; under `Cc1nc(N)nc2c1C(=O)CC(c1ccc(Cl)cc1-c1cccnc1F)C2` (centres unmarked) [Compound 249, 2-amino-7-[4-chloro-2-(2-fluoro-pyridin-3-yl)-phenyl]-4-methyl-7,8-dihydro-6H-quinazolin-5-one], > 6.00. The same measure, in the same setting: then `CCc1nc(N)nc2c1C(=O)CC(c1ccc(F)cc1-c1cccc(OC)c1F)C2` (centres unmarked) [Compound 320, 2-amino-7-(5,2′-difluoro-3′-methoxy-biphenyl-2-yl)-4-ethyl-7,8-dihydro-6H-quinazolin-5-one], with < 5.00.

`Cc1nc(N)nc2c1C(=O)CC(c1nccn1Cc1ccccn1)C2` (centres unmarked) [Compound 209, 2-amino-4-methyl-7-(1-pyridin-2-ylmethyl-1H-imidazol-2-yl)-7,8-dihydro-6H-quinazolin-5-one]: the pIC50 was < 5.00.

With `Cc1nc(N)nc2c1C(=O)CC(c1ccc(F)cc1-c1cnc(N)nc1)C2` (centres unmarked) [Compound 269, 2-amino-7-[2-(2-amino-pyrimidin-5-yl)-4-fluoro-phenyl]-4-methyl-7,8-dihydro-6H-quinazolin-5-one], the pIC50 was 5.00 to 6.00. Still for that read-out and setting: under `Cc1nc(N)nc2c1C(=O)CC(c1ccc(F)cc1OCC1CC1)C2` (centres unmarked) [Compound 179, 2-amino-7-(2-cyclopropylmethoxy-4-fluoro-phenyl)-4-methyl-7,8-dihydro-6H-quinazolin-5-one] stands > 6.00; under `COc1cccc(-c2cc(F)ccc2[C@@H]2CC(=O)c3c(C)nc(N)nc3C2)n1` [Compound 261, (S)-2-amino-7-[4-fluoro-2-(6-methoxy-pyridin-2-yl)-phenyl]-4-methyl-7,8-dihydro-6H-quinazolin-5-one], > 6.00; under `Cc1nc(N)nc2c1C(=O)CC(c1nccn1-c1ccc(Cl)cc1F)C2` (centres unmarked) [Compound 328, 2-amino-7-[1-(4-chloro-2-fluoro-phenyl)-1H-imidazol-2-yl]-4-methyl-7,8-dihydro-6H-quinazolin-5-one], 5.00 to 6.00. With `CCc1ccccc1-n1ccnc1C1CC(=O)c2c(C)nc(N)nc2C1` (centres unmarked) [Compound 195, 2-amino-7-[1-(2-ethyl-phenyl)-1H-imidazol-2-yl]-4-methyl-7,8-dihydro-6H-quinazolin-5-one], the pIC50 is > 6.00. The same measure, in the same setting: then `COc1nc(-c2cc(F)ccc2C2CC(=O)c3c(C)nc(N)nc3C2)ncc1C` (centres unmarked) [Compound 259, 2-amino-7-[4-fluoro-2-(4-methoxy-5-methyl-pyrimidin-2-yl)-phenyl]-4-methyl-7,8-dihydro-6H-quinazolin-5-one], with > 6.00.

Regarding `Cc1nc(N)nc2c1C(=O)CC(c1ccc(F)cc1OC(C)C)C2` (centres unmarked) [Compound 176, 2-amino-7-(4-fluoro-2-isopropoxy-phenyl)-4-methyl-7,8-dihydro-6H-quinazolin-5-one], the pIC50 was > 6.00. The same measure, in the same setting: then `Cc1nc(N)nc2c1C(=O)CC(c1ccc(F)cc1-c1cccc(O)n1)C2` (centres unmarked) [Compound 264, 2-amino-7-[4-fluoro-2-(6-hydroxy-pyridin-2-yl)-phenyl]-4-methyl-7,8-dihydro-6H-quinazolin-5-one], with 5.00 to 6.00; and `COc1cccc(-c2cc(F)c(C3CC(=O)c4c(C)nc(N)nc4C3)c(F)c2)n1` (centres unmarked) [Compound 256, 2-amino-7-[2,6-difluoro-4-(6-methoxy-pyridin-2-yl)-phenyl]-4-methyl-7,8-dihydro-6H-quinazolin-5-one], with < 5.00. Turning to `Cc1cnc(C)c(-c2cc(F)ccc2C2CC(=O)c3c(C)nc(N)nc3C2)n1` (centres unmarked) [Compound 227, 2-amino-7-[2-(3,6-dimethyl-pyrazin-2-yl)-4-fluoro-phenyl]-4-methyl-7,8-dihydro-6H-quinazolin-5-one], the pIC50 was 5.00 to 6.00. For `COc1ccc(-c2cccnc2OC)c(C2CC(=O)c3c(C)nc(N)nc3C2)c1` (centres unmarked) [Compound 253, 2-amino-7-[5-methoxy-2-(2-methoxy-pyridin-3-yl)-phenyl]-4-methyl-7,8-dihydro-6H-quinazolin-5-one], the pIC50 is > 6.00. On the same count and under the same terms, then `Cc1nc(N)nc2c1C(=O)CC(c1cc(F)ccc1-c1cncnc1)C2` (centres unmarked) [Compound 284, 2-amino-7-(5-fluoro-2-pyrimidin-5-yl-phenyl)-4-methyl-7,8-dihydro-6H-quinazolin-5-one], with < 5.00; and `COc1cccc(-n2ccnc2C2CC(=O)c3c(C)nc(N)nc3C2)c1` (centres unmarked) [Compound 190, 2-amino-7-[1-(3-methoxy-phenyl)-1H-imidazol-2-yl]-4-methyl-7,8-dihydro-6H-quinazolin-5-one], with 5.00 to 6.00. The same measure, in the same setting: under `Nc1ncc2c(n1)CC(c1ccccc1Br)CC2=O` (centres unmarked) [Compound 244, 2-amino-7-(2-bromo-phenyl)-7,8-dihydro-6H-quinazolin-5-one] stands < 5.00.

As usually defined, the pIC50 is the negative decadic logarithm of the IC50, by convention in mol/L.
